In patent US8293529B2, “Method for inducing differentiation of pluripotent stem cells into cardiomyocytes” (Daiichi Sankyo Company, Limited, priority 2006, dated 2012):

Key:
mouse ES cells [1] = experiment: Appearance rate of EBs exhibiting spontaneous beating; format: cell-based
Method: Culture for inducing differentiation of ES cells into cardiomyocytes or neurons was accomplished in a routine manner as follows. ES cells were suspended in LIF-free medium, and the resulting suspension was seeded at 500 cells/50 μL per well of a commercially available 96-well culture plate for spheroid formation (Sumilon Celltight Spheroid; Sumitomo Bakelite Co., Ltd., Japan).
In the early stage of differentiation in ES cells, transient elevations in expression of various Wnt genes were observed prior to the appearance of cardiomyocytes. Then, ES cells at this stage were treated with recombinant Wnt proteins to study the myocardial differentiation-inducing effect of the proteins. Induction of ES cell differentiation was accomplished in the same manner as used in Example 1, except that some of the experimental groups were cultured in medium containing a commercially available recombinant WNT-1 (Peprotech), Wnt-3a (R&D systems) or Wnt-5a (R&D systems) protein. Treatment of ES cells in medium supplemented with a recombinant protein of canonical Wnt such as WNT-1 is hereinafter referred to as “Wnt treatment.”
The above canonical Wnt protein treatment is known to inhibit the action of GSK3β within cells and thereby promote stabilization of β-catenin and its transcription activation ability. Then, further studies were performed to confirm that treatment with various drugs capable of promoting stabilization of β-catenin and its transcription activation ability produced a myocardial differentiation-inducing effect on ES cells, as in the case of Wnt treatment. As drugs capable of promoting stabilization of β-catenin and its transcription activation ability, the following five commercially available compounds were used: GSK3β inhibitors BIO (Calbiochem), GSK3β inhibitor VII (Calbiochem), cell-permeable GSK3β peptide inhibitor (L803-mts; Calbiochem) and SB216763 (Biomol), as well as a Wnt agonist (Calbiochem) that promotes the transcription activation ability of β-catenin without GSK3β inhibition. ES cells were induced to differentiate in the same manner as used in the above Examples, and cultured in medium containing the above compounds during the time period between 48 and 120 hours ([…]) after induction of differentiation, as in the case of recombinant Wnt proteins.

cmES cells [2] = experiment: Marker gene expression in EBs from cmES cells (RT-PCR); format: cell-based, common marmoset; conditions: EBs at 10 days after induction; vs untreated group
Method: The EBs thus prepared were collected periodically, and total RNA was prepared with an RNeasy mini kit (Qiagen). cDNA was then synthesized with reverse transcriptase and analyzed by PCR to detect expression of common marmoset Wnt-3 gene (cmWnt-3) and β-actin (cmβActin) serving as an endogenous control. The primers used for detection are as shown below.
Moreover, for analysis of expressed genes, EBs were collected at 10 days after induction of differentiation to detect expression of various marker genes in the same manner as used in Example 5. The primers used for detection of common marmoset Nestin, ANP, MLC-2a and MLC-2v transcripts (hereinafter referred to as cmNestin, cmANP, cmMLC-2a and cmMLC-2v, respectively) are as shown below.

cmES cells [3] = experiment: Immunohistochemical staining of marker proteins in EBs from cmES cells; format: cell-based, common marmoset; conditions: EBs at 16 days after induction of differentiation
Method: Subsequently, immunohistochemical staining was performed in the same manner as used in Example 2 to confirm that beating cells developed in EBs from the Wnt-treated groups were cardiomyocytes producing specific marker proteins. From EBs in the Wnt-treated groups (Wnt-3a, WNT-1) at 16 days after induction of differentiation, frozen sections were prepared and reacted with anti-sarcomeric myosin antibody, anti-GATA-4 antibody or anti-Nkx-2.5 antibody as a primary antibody. After color reaction, these sections were observed under an optical microscope.

mouse ES cells [4] = conditions: added for 3 days after initiation of differentiation induction (Naito et al.); cited from earlier work

Substance: Wnt-3a
- occurrence of beating EBs (mouse ES cells [1]; Wnt proteins added at 10 ng/mL to 50 ng/mL): very good occurrence of beating EBs
- appearance rate of beating EBs (mouse ES cells [1]; recombinant protein added at 1 ng/mL to 100 ng/mL): significantly higher than in the untreated group
- promoting effect on differentiation (mouse ES cells [1]; similar studies by the applicant, added for 3 days after initiation of induction (Example 2)): no significant promoting effect on differentiation
- expression of cardiomyocyte marker genes cmANP, cmMLC-2a and cmMLC-2v (cmES cells [2]): significantly stronger expression
- cells positive for sarcomeric myosin, GATA-4 and Nkx-2.5 (cmES cells [3]): the great majority of EB-constituting cells were found to be positive
- effect on myocardial differentiation from ES cells (mouse ES cells [4]): promote myocardial differentiation from ES cells
